Measured values published in ChEMBL document CHEMBL3232943, “SAR study on arylmethyloxyphenyl scaffold: looking for a P-gp nanomolar affinity” (Eur J Med Chem, 2014).

What was measured:
[1] = biological target: T1, ATP-dependent translocase ABCB1 (Homo sapiens, UniProt P08183); assay: Inhibition of P-glycoprotein (unknown origin) expressed in MDCK cells assessed as reduction of calcein-AM transport after 30 mins by fluorescence assay; type: cell-based
[2] = biological target: T1, ATP-dependent translocase ABCB1; assay: Activation of ATPase activity of MDR1 (unknown origin) expressed in MDCK cells assessed as reduction of reduction of ATP level at 100 uM after 2 hrs by luminescence/ATPlite assay; type: cell-based; parameters: scale not given: the % may be the effect or the level left
[3] = Efflux ratio of permeability from basolateral to apical side over apical to basolateral side in human Caco2 cells at 100 uM after 30 mins by UV spectroscopy; type: ADME, cell-based; settings: Caco-2
[4] = biological target: Multidrug resistance-associated protein 1 (Homo sapiens, UniProt P33527); assay: Modulation of MRP1 (unknown origin) expressed in MDCK cells at 100 uM; type: cell-based
Multidrug resistance-associated protein 1, sequence (P33527 whole entry): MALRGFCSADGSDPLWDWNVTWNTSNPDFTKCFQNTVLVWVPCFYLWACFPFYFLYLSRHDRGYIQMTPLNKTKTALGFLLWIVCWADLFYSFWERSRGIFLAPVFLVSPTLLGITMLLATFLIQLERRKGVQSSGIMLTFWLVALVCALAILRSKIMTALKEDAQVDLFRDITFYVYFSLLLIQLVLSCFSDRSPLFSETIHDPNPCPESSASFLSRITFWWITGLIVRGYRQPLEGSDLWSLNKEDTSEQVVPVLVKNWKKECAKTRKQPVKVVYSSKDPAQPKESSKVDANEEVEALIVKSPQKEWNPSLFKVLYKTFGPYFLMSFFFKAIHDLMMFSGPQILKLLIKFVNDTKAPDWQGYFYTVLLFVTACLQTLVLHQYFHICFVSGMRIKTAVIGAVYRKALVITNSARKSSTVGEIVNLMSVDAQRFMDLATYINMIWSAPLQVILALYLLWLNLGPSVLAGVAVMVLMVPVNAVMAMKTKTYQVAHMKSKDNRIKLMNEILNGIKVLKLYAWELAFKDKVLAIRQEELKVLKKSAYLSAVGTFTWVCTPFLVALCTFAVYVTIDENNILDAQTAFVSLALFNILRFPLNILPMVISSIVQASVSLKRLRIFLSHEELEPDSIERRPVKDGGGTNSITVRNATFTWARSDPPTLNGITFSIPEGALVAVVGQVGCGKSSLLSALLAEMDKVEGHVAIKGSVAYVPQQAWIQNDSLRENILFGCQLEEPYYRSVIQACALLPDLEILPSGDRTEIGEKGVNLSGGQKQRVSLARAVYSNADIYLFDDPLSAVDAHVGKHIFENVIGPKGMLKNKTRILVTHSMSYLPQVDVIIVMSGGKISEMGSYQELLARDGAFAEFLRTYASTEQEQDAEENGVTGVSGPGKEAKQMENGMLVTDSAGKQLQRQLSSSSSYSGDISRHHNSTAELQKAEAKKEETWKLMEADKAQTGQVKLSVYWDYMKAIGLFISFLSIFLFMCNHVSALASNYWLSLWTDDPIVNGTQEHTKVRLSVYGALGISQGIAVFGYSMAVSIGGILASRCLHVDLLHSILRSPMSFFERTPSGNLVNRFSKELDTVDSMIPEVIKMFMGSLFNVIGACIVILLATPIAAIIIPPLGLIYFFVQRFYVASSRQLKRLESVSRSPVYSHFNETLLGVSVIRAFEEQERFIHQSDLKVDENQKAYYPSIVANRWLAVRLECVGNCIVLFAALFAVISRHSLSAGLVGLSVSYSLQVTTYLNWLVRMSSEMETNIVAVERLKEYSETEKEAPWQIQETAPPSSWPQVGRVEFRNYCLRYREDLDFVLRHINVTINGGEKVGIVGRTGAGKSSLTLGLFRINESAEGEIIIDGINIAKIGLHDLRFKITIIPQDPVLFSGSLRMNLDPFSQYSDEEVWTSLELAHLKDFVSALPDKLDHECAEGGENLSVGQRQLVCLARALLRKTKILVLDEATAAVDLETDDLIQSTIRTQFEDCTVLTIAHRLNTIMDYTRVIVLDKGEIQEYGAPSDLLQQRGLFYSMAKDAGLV

[5] = system: MDCK; assay: Cytotoxicity against MDR1 expressing MDCK cells assessed as cell viability at 1 uM after 24 hrs by MTT assay; type: ADME, cell-based, Canis lupus familiaris; settings: dog
[6] = Cytotoxicity against MDR1 expressing MDCK cells assessed as cell viability at 1 uM after 48 hrs by MTT assay; type: ADME, cell-based, Canis lupus familiaris; settings: dog, read-out: Activity
[7] = Cytotoxicity against MDR1 expressing MDCK cells assessed as cell viability at 1 uM after 48 hrs by MTT assay in presence of MC18 P-gp inhibitor; type: ADME, cell-based, Canis lupus familiaris; settings: dog, with MC18 (P-gp inhibitor), concentration not stated, read-out: Activity

T1 sequence (P08183 whole entry): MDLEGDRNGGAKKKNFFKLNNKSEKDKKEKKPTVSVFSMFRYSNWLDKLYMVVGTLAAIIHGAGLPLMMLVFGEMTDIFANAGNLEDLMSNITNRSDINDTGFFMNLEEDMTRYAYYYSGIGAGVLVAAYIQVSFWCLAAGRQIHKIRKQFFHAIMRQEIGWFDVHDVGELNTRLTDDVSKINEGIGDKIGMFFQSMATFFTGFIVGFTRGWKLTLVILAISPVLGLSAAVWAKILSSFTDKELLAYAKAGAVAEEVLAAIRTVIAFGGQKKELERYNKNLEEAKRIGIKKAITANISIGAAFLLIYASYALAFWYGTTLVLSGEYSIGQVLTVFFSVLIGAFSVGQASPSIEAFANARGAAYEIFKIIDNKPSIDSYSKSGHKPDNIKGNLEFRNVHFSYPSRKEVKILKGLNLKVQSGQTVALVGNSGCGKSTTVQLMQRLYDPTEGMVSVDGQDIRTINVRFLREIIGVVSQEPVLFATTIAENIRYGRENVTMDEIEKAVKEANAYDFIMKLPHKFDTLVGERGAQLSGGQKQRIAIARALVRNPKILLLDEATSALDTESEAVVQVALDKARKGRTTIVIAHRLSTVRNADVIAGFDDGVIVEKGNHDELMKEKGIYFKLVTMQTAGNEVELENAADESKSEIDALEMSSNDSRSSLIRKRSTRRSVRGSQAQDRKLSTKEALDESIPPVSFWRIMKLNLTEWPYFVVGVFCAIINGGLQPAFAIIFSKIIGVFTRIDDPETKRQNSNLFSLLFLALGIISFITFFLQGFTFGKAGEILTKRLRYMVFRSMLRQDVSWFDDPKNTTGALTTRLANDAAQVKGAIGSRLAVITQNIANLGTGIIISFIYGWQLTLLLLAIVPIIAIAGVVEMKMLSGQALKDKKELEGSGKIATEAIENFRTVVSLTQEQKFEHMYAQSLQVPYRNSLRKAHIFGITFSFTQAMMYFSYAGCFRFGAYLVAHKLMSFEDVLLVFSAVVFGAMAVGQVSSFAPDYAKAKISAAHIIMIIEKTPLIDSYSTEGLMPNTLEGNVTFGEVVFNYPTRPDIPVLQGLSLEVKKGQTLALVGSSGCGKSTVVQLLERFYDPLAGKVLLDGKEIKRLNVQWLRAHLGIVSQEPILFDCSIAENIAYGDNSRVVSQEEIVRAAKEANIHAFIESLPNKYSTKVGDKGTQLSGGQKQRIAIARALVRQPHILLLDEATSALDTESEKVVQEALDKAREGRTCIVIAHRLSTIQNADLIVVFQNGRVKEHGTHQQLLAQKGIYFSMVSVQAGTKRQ

| Compound | EC50 [1] [µM] | Activity [2] | efflux ratio at 0.5 h, 100 µM [3] | Activity [4] | Activity [5] | viability at 48 h, 1 µM [6] [%] | viability at 48 h, 1 µM [7] [%] |
| --- | --- | --- | --- | --- | --- | --- | --- |
| COc1cccc(CCc2ccccc2OCc2cc(OC)c(OC)c(OC)c2)c1OC | 0.3 | Active | 3.23 | Not Active |  |  |  |
| COc1cccc(CCc2ccccc2OCc2ccc3c(c2)OCO3)c1 | > 100 | Active |  | Not Active |  |  |  |
| COc1cccc(COc2ccccc2CCc2cc(OC)c(OC)c(OC)c2)c1OC | 3.2 | Active | 3.45 | Not Active |  |  |  |
| COc1cccc(CCc2ccccc2NCc2ccncc2)c1 | 11.5 | Active | 3 | Not Active |  |  |  |
| Clc1ccc(COc2ccccc2CCc2ccccc2)c(Cl)c1 | > 100 |  |  | Not Active |  |  |  |
| COc1cccc(CCc2ccccc2OCc2cccs2)c1 | > 100 | Active |  | Not Active |  |  |  |
| COc1cccc(CCc2ccccc2OCc2ncccn2)c1 | 32.5 | Active | 2.91 | Not Active |  |  |  |

Continued, in another order:

| EC50 [1] [µM] | Activity [2] | efflux ratio at 0.5 h, 100 µM [3] | Activity [4] | Compound | Activity [5] | viability at 48 h, 1 µM [6] [%] | viability at 48 h, 1 µM [7] [%] |
| --- | --- | --- | --- | --- | --- | --- | --- |
| 10.9 | Active | 4.1 | Not Active | COc1cccc(CCc2ccccc2NC(=O)c2cccc(OC)c2)c1 |  |  |  |
|  | 30% | 22 |  | COc1cc2c(cc1OC)CN(CCc1ccc(NC(=O)c3cc(OC)c(OC)cc3NC(=O)c3cnc4ccccc4c3)cc1)CC2 [TARIQUIDAR] |  |  |  |
| 0.0071 | Active | 3.96 | Not Active | COc1cc(CCc2ccccc2OCc2cc(OC)c(OC)c(OC)c2)cc(OC)c1OC | Non-toxic | 40 | 63 |
| 2.1 | Not Active | 2.77 | Not Active | COc1ccc(CCc2ccccc2OCc2ccc(OC)c(OC)c2)cc1OC |  |  |  |
| 1.3 | Not Active |  | Not Active | COc1cc(COc2ccccc2CCc2cc(OC)c(OC)c(OC)c2)cc(OC)c1 |  |  |  |
| 3.1 | Not Active | 3.14 | Not Active | COc1cccc(CCc2ccccc2OCc2cc(OC)c(OC)c(OC)c2)c1 |  |  |  |
| 0.9 | Active | 3.8 | Not Active | COc1ccc(COc2ccccc2CCc2cc(OC)c(OC)c(OC)c2)cc1OC |  |  |  |
| 43.7 | Active |  | Not Active | COc1cccc(CCc2ccccc2NC(=O)c2cccnc2)c1 |  |  |  |
